Common to all, as to assay: DTP human tumour cell line panel, 48 h
Assay [1] relates to OVCAR-5 ovarian.
Assay [2] deals with NCI-H226 lung.
The test system of assay [3] is HS 578T breast.
In assay [4] the test system is DU-145 prostate.
The subject of assay [5] is LOX IMVI melanoma.
In assay [6] the test system is M14 melanoma.
In assay [7] the test system is SNB-19 CNS.
In assay [8] the test system is NCI/ADR-RES ovarian.
Assay [9] relates to CCRF-CEM leukemia.
The subject of assay [10] is UO-31 renal.
The test system of assay [11] is NCI-H460 lung.

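Where inhibition never reached the appropriate level, the endpoint shown equals the highest concentration tested. Otherwise, values were interpolated linearly from a five-concentration, 48-hour dose response in 96-well plates. At the TGI there is no net growth.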 Bounds are passed on as bounds.

By TGI is commonly meant the concentration at which net growth stops. Lower therefore signals more potent growth arrest.

In the case of `O=[N+]([O-])/C(Cl)=C(\Nc1ccccc1)C(Cl)=C(Cl)Cl`, the TGI in assay [1] is over 100 µM; in [2], 78 µM; in assay [3] it was 69.6 µM; in assay [4] it was over 100 µM; in assay [5] it was 88.5 µM; in [6] it was 58.4 µM. Moreover, the TGI was over 100 µM in assay [7]; 38.5 µM in [8]; 42.9 µM in assay [9]; over 100 µM in [10]; over 100 µM in assay [11].
For the compound `Cc1ccc(S(=O)(=O)[N-]C2C(=O)c3ccccc3C(=O)C2[n+]2cccc(C(N)=O)c2)cc1` (stereo not given), the TGI in assay [1], in assay [2], in assay [3], in assay [4], in assay [5] and in assay [6] was over 100 µM throughout. Besides, the TGI in assay [7], in assay [8], in assay [9], in assay [10] and in assay [11] was over 100 µM throughout.
Take `CCOC(=O)c1cc(C2CCN(CC(C)CC)C2=S)c(C(=O)/C=C(/C)N)[nH]1` (stereo not given): the TGI in assay [1], in [2], in [3], in assay [4], in assay [5] and in assay [6] was over 50 µM throughout. For the same compound, the TGI in [7], in assay [8], in assay [9], in assay [10] and in assay [11] was over 50 µM each time.
Take `CCC(CC)C(=O)OC[n+]1cccc(-c2c(COC(=O)NC(C)C)c(COC(=O)NC(C)C)c3n2CCC3)c1`: the TGI in [1], in [2], in assay [3], in assay [4], in assay [5] and in assay [6] was over 100 µM each time. In addition, the TGI in assay [7], in assay [8], in assay [9], in assay [10] and in assay [11] was over 100 µM throughout.
Regarding `CC(=O)n1nc(-c2nc3ccccc3nc2Cl)cc1Cl`, the concentration for total growth inhibition (TGI) in [1] was over 92.3 µM; in assay [2] it was 30.8 µM; in assay [3] it was over 91.7 µM; in assay [4], 43.1 µM; in assay [5], 33.3 µM; in assay [6], 19.4 µM. Also, the TGI in assay [7] was over 92 µM; in assay [8], 55.8 µM; in assay [9] it was 7.73 µM; in assay [10], 4.79 µM; in assay [11], over 88.2 µM.
`COc1ccc2nc3cc([N+](=O)[O-])ccc3c(NNc3ccc(Cl)cc3)c2c1`: the TGI in [1] was over 100 µM; in [2] it was 26 µM; in assay [3], over 100 µM; in assay [4], over 96.5 µM; in assay [5], over 100 µM; in assay [6], over 92.5 µM. The TGI in assay [7] is over 100 µM; in [8], over 100 µM; in assay [9], 80.1 µM; in assay [10] it was over 100 µM; in assay [11], over 59 µM.
Turning to `NC1=CC(C(=O)c2ccncc2)c2nc3ccccc3nc21` (stereo not given), the TGI was over 100 µM in assay [1]; over 100 µM in assay [2]; over 100 µM in assay [3]; over 100 µM in assay [4]; 88.1 µM in assay [5]; over 100 µM in [6]. The TGI in assay [7], in [8], in assay [9], in assay [10] and in assay [11] was over 100 µM throughout.
In the case of `CC(C)C[C@H](NC(=O)CCc1ccccc1)B(O)O`, the concentration for total growth inhibition (TGI) in assay [1] was 40.2 µM; in [2] it was 4.8 µM; in assay [3], 29.6 µM; in assay [4] it was over 100 µM; in [5], 16.7 µM; in assay [6], 24.7 µM. In addition, the TGI was over 100 µM in assay [7]; 49.2 µM in assay [8]; 7.33 µM in assay [9]; 60.1 µM in assay [10]; 52.9 µM in [11].
Take `C/C(=N\NS(=O)(=O)c1ccc(C)cc1)C(CN(C)C)C(c1ccccc1)c1c(O)c2ccccc2oc1=O` (stereo not given): the TGI in [1], in assay [2], in assay [3], in assay [4], in [5] and in [6] was over 100 µM in each case. The TGI in assay [7], in assay [8], in assay [9], in assay [10] and in [11] was over 100 µM each time.
With `Cc1ccc(S(=O)(=O)NC(=O)NCC(=O)NCC(=O)O)cc1`, the TGI in assay [1], in assay [2], in assay [3], in assay [4], in [5] and in assay [6] was over 100 µM throughout. The TGI in assay [7], in assay [8], in assay [9], in assay [10] and in [11] was over 100 µM each time.
In the case of `Cc1cc(S(=O)(=O)Nc2nc(N)nc(N3CCOCC3)n2)c(SCC(=O)O)cc1Cl`, the TGI in assay [1], in assay [2], in assay [3], in assay [4], in assay [5] and in assay [6] was over 10 µM each time. For the same compound, the TGI in assay [7], in [8], in [9], in [10] and in assay [11] was over 10 µM each time.
Take `NC(C(F)(F)F)(C(F)(F)F)P(=O)(c1ccccc1)c1ccccc1`: the TGI in [1], in [2], in [3], in assay [4], in assay [5] and in assay [6] was over 100 µM in each case. Moreover, the TGI in [7], in assay [8], in assay [9], in [10] and in assay [11] was over 100 µM each time.
Consider `Cc1[nH]n(-c2nc3c(c(=O)[nH]2)CCC3)c(=O)c1CCO`, for which the TGI in assay [1], in [2], in assay [3], in assay [4], in assay [5] and in assay [6] was over 100 µM each time. Besides, the TGI in assay [7], in [8], in assay [9], in [10] and in assay [11] was over 100 µM throughout.
Consider `Cc1cnc2[nH]c(-c3ccc(F)cc3)cc(=O)c2c1`, for which the TGI in assay [1] is over 100 µM; in [2], over 84.5 µM; in assay [3] it was over 100 µM; in assay [4], over 100 µM; in [5] it was over 100 µM; in assay [6], over 100 µM. Besides, the TGI in assay [7] is over 100 µM; in [8], over 87.5 µM; in [9] it was over 100 µM; in assay [10], over 100 µM; in assay [11], over 100 µM.
Turning to `Cc1cn(CC2=NCC(C)(C)CN2)c(=O)[nH]c1=O`, the TGI in [1], in [2], in [3], in [4], in assay [5] and in assay [6] was over 100 µM throughout. Also, the TGI in assay [7], in assay [8], in assay [9], in [10] and in assay [11] was over 100 µM in each case.

For the origin of these results see PubChem BioAssay (NCI).
